Where “and” joins values, the source holds several entries; their conditions need not be identical. Equal entries are not always repeated. Inconclusive results and toxic doses are left out.
System: P388 leukemia ip, CD2F1 mice, survival T/C
Assay: NCI In Vivo Anticancer Drug Screen. Data for tumor model P388 Leukemia (intraperitoneal) in CD2F1 (CDF1) mice
Settings: endpoint: median survival time, higher = longer survival
Outline: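 Mice carrying the transplanted tumor received test compound or vehicle. Survival was recorded in each group, and the value is the treated-group measurement divided by that of the vehicle-treated control group.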

[1] = dose: 100.0 mg/kg/injection, schedule: Q01DX005 (ip), vehicle: saline with Tween-80
[2] = dose: 200.0 mg/kg/injection, schedule: Q01DX005 (ip), vehicle: saline with Tween-80
[3] = dose: 50.0 mg/kg/injection, schedule: Q01DX009 (ip), vehicle: saline
[4] = dose: 100.0 mg/kg/injection, schedule: Q01DX009 (ip), vehicle: saline
[5] = dose: 200.0 mg/kg/injection, schedule: Q01DX009 (ip), vehicle: saline

CC1(C)Cc2nn3c(c2C(=O)O1)CC(c1ccccc1)c1ccccc1-3 (configuration not stated)
T/C (dose: 100.0 mg/kg/injection, schedule: Q01DX001 (ip), vehicle: saline with Tween-80): 90 % of control | T/C (dose: 200.0 mg/kg/injection, schedule: Q01DX001 (ip), vehicle: saline with Tween-80): 89 % of control | T/C (dose: 400.0 mg/kg/injection, schedule: Q01DX001 (ip), vehicle: saline with Tween-80): 96 % of control

C/C(=N\N=C/N(C)S(C)(=O)=O)c1ccccc1
T/C (dose: 50.0 mg/kg/injection, schedule: Q01DX005 (ip), vehicle: Klucel (hydroxypropylcellulose) (HPC)): 104 % of control | T/C (dose: 100.0 mg/kg/injection, schedule: Q01DX005 (ip), vehicle: Klucel (hydroxypropylcellulose) (HPC)): 104 % of control | T/C (dose: 200.0 mg/kg/injection, schedule: Q01DX005 (ip), vehicle: Klucel (hydroxypropylcellulose) (HPC)): 99 % of control

C=CCC(CC)(C(=O)Nc1ccc2nc(C)cc(N)c2c1)C(=O)Nc1ccc2nc(C)cc(N)c2c1
T/C (dose: 6.25 mg/kg/injection, schedule: Q01DX005 (ip), vehicle: saline with Tween-80): 94 % of control | T/C (dose: 12.5 mg/kg/injection, schedule: Q01DX005 (ip), vehicle: saline with Tween-80): 89 % of control | T/C [1]: 87 % of control | T/C [2]: 96 % of control

CON/C=C(C#N)/C=C/C=Nc1ccc(S(=O)(=O)N=C(N)N)cc1
T/C (dose: 12.5 mg/kg/injection, schedule: Q01DX009 (ip), vehicle: saline with Tween-80): 98 % of control | T/C (dose: 25.0 mg/kg/injection, schedule: Q01DX009 (ip), vehicle: saline with Tween-80): 93 % of control | T/C (dose: 50.0 mg/kg/injection, schedule: Q01DX009 (ip), vehicle: saline with Tween-80): 87 % of control and 92 % of control

CC(C)C12CC(COCc3ccccc3)OC1=NC(=O)NC2=O (configuration not stated)
T/C (dose: 50.0 mg/kg/injection, schedule: Q01DX009 (ip), vehicle: Klucel (hydroxypropylcellulose) (HPC)): 112 % of control | T/C (dose: 100.0 mg/kg/injection, schedule: Q01DX009 (ip), vehicle: Klucel (hydroxypropylcellulose) (HPC)): 103 % of control | T/C (dose: 200.0 mg/kg/injection, schedule: Q01DX009 (ip), vehicle: Klucel (hydroxypropylcellulose) (HPC)): 94 % of control

CB1N(c2ccccc2)N=NN1C(C)(C)C
T/C (dose: 15.0 mg/kg/injection, schedule: Q01DX005 (ip), vehicle: Klucel (hydroxypropylcellulose) (HPC)): 97 % of control | T/C (dose: 30.0 mg/kg/injection, schedule: Q01DX005 (ip), vehicle: Klucel (hydroxypropylcellulose) (HPC)): 102 % of control | T/C (dose: 60.0 mg/kg/injection, schedule: Q01DX005 (ip), vehicle: Klucel (hydroxypropylcellulose) (HPC)): 107 % of control | T/C (dose: 120.0 mg/kg/injection, schedule: Q01DX005 (ip), vehicle: Klucel (hydroxypropylcellulose) (HPC)): 110 % of control | T/C (dose: 240.0 mg/kg/injection, schedule: Q01DX005 (ip), vehicle: Klucel (hydroxypropylcellulose) (HPC)): 91 % of control

Cc1cc2c(c(Br)c1O)Oc1c(cc(C)c(O)c1Br)C21OC(=O)c2ccccc21
T/C (dose: 50.0 mg/kg/injection, schedule: Q01DX005 (ip), vehicle: saline with Tween-80): 110 % of control | T/C [1]: 106 % of control | T/C [2]: 105 % of control

C=C(C)CC(N)C(=O)O (configuration not stated)
T/C (dose: 50.0 mg/kg/injection, schedule: Q01DX005 (ip), vehicle: saline): 103 % of control | T/C (dose: 100.0 mg/kg/injection, schedule: Q01DX005 (ip), vehicle: saline): 100 % of control | T/C (dose: 200.0 mg/kg/injection, schedule: Q01DX005 (ip), vehicle: saline): 99 % of control

Clc1cnc(/N=C/c2ccc(/C=N/c3ncc(Cl)cc3Cl)cc2)c(Cl)c1
T/C [3]: 100 % of control | T/C [4]: 101 % of control | T/C [5]: 102 % of control

O=C(N1CCC(CCCC2CCN(C(=O)C(F)(F)C(F)(F)C(F)(F)C(F)(F)C(F)(F)C(F)(F)C(F)(F)F)CC2)CC1)C(F)(F)C(F)(F)C(F)(F)C(F)(F)C(F)(F)C(F)(F)C(F)(F)F
T/C [3]: 98 % of control | T/C [4]: 96 % of control | T/C [5]: 95 % of control

CN1C(NC(=O)C(C)(C)O)C(C)(C)C(C)(C)C1NC(=O)C(C)(C)O (configuration not stated)
T/C (dose: 30.0 mg/kg/injection, schedule: Q01DX005 (ip), vehicle: saline with Tween-80): 121 % of control | T/C (dose: 60.0 mg/kg/injection, schedule: Q01DX005 (ip), vehicle: saline with Tween-80): 123 % of control | T/C (dose: 120.0 mg/kg/injection, schedule: Q01DX005 (ip), vehicle: saline with Tween-80): 151 % of control | T/C (dose: 240.0 mg/kg/injection, schedule: Q01DX005 (ip), vehicle: saline with Tween-80): 123 % of control

— PubChem BioAssay AID330 (DTP/NCI, 2004)
